Assay results: patent publication US8563000B2, “Melanocortin receptor ligands modified with hydantoin” (Ipsen Pharma S.A.S., priority 2007, dated 2013)

Experiments:
hMC1 [1] = target: T1, hMC1 (Homo sapiens, UniProt Q01726); test: Cyclic AMP bioassay (ECL), CHO-K1 cells expressing hMC1; assay type: cell-based; conditions: intracellular cAMP
T1 construct: expressed in transfected cells; host or cells: CHO-K1
Experimental: (§3) Intracellular cyclic AMP (cAMP) levels were determined by an electrochemiluminescence (ECL) assay (Meso Scale Discovery®, Gaithersburg, Md.; referred to hereinafter as “MSD”). […] Transgenic CHO-K1 cells stably expressing hMC receptor subtypes 1, 3, 4 or 5 were dispensed at a density of approximately 7,000 cells/well in 384-well Multi-Array® plates (MSD) containing integrated carbon electrodes and coated with anti-cAMP antibody. Increasing concentrations of the test compounds were added and the cells were incubated for approximately 40 minutes at approximately 37° C. […] At the end of the second incubation period read buffer (Tris-buffered solution containing an ECL co-reactant and Triton X-100 at ph 7.8) was added and the cAMP levels in the cell lysates were immediately determined by ECL detection with a Sector Imager 6000 Reader® (MSD). Data was analyzed using a computer-assisted non-linear regression analysis (XL fit; IDBS) and reported as either an EC50 value or a Kb value.

hMC3 [2] = target: T2, hMC3 (Homo sapiens, UniProt P41968); test: Cyclic AMP bioassay (ECL), CHO-K1 cells expressing hMC3; assay type: cell-based; conditions: intracellular cAMP
T2 construct: expressed in transfected cells; host or cells: CHO-K1
T2 sequence (P41968 whole entry): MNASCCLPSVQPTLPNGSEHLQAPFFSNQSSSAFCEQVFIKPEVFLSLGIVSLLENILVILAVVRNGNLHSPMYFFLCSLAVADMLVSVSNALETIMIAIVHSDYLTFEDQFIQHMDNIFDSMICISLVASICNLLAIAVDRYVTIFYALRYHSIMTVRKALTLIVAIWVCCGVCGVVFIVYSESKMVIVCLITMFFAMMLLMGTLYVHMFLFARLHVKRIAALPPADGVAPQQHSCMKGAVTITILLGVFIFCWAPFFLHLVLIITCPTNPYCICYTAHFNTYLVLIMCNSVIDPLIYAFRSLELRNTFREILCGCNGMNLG
Experimental: as §3

hMC4 [3] = target: T3, hMC4 (Homo sapiens, UniProt P32245); test: Cyclic AMP bioassay (ECL), CHO-K1 cells expressing hMC4; assay type: cell-based; conditions: intracellular cAMP
T3 construct: expressed in transfected cells; host or cells: CHO-K1
T3 sequence (P32245 whole entry): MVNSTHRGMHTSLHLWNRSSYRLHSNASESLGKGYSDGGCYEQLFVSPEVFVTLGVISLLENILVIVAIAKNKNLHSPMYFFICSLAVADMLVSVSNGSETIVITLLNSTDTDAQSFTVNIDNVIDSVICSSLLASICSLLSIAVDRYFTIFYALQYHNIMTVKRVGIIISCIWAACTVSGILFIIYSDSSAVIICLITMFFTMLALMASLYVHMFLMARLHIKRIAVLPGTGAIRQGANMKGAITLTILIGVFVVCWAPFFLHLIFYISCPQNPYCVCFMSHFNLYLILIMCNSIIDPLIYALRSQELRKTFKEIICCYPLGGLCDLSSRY
Experimental: as §3

hMC5 [4] = target: T4, hMC5 (Homo sapiens, UniProt P33032); test: Cyclic AMP bioassay (ECL), CHO-K1 cells expressing hMC5; assay type: cell-based; conditions: intracellular cAMP
T4 construct: expressed in transfected cells; host or cells: CHO-K1
T4 sequence (P33032 whole entry): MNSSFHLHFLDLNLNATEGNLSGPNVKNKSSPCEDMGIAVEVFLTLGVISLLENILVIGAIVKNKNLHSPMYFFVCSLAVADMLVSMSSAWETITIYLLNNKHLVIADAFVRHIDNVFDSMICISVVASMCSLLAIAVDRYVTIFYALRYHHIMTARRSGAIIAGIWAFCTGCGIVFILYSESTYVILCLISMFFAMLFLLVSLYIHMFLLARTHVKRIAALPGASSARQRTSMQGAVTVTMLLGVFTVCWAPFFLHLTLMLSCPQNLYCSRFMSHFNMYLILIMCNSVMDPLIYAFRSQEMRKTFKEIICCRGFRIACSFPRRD
Experimental: as §3

hMC1 [5] = target: T1, hMC1; test: Radioligand binding assay, [125I]-NDP-α-MSH, CHO-K1 membranes
Experimental: (§1) Cellular membranes used for the in vitro receptor binding assays were obtained from transgenic CHO-K1 cells stably expressing hMC-R receptor subtypes 1, 3, 4 or 5. […] The pellets were re-suspended in the same buffer and centrifuged at 50,000 g for 10 minutes at approximately 4° C. The washed pellets containing the cellular membranes were stored at approximately −80° C.
(§2) Filters were washed three times with 50 mM Tris-HCl at pH 7.4 at a temperature of approximately 0-4° C. and then assayed for radioactivity using a Packard Topcount® scintillation counter. Binding data were analyzed by computer-assisted non-linear regression analysis (XL fit; IDBS).

hMC3 [6] = target: T2, hMC3; test: as above
Experimental: as §1, §2

hMC4 [7] = target: T3, hMC4; test: as above
Experimental: as §1, §2

hMC5 [8] = target: T4, hMC5; test: as above
Experimental: as §1, §2

T1 sequence (Q01726 whole entry): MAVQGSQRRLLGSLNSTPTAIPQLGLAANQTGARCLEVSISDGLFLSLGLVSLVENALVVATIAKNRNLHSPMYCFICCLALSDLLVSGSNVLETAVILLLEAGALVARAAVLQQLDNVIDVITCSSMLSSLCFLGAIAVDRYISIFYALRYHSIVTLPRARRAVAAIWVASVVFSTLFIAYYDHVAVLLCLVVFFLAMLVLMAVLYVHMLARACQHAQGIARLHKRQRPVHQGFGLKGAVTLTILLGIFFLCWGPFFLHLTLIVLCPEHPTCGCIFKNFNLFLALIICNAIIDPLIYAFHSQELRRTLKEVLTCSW

EC50 (hMC1 [1]) [nM]	EC50 (hMC3 [2]) [nM]	EC50 (hMC4 [3]) [nM]	EC50 (hMC5 [4]) [µM]	Ki (hMC1 [5]) [nM]	Ki (hMC3 [6]) [nM]	Ki (hMC4 [7]) [nM]	Ki (hMC5 [8]) [nM]	Structure (SMILES)
18	17.1	0.16	2.71	9.49	124	2.95	2260	N=C(N)NCCC[C@@H]1NC(=O)[C@@H](Cc2ccccc2)NC(=O)[C@H](Cc2cnc[nH]2)NC(=O)[C@H](CCC(=O)O)NC(=O)[C@@H](NC(=O)CN2C(=O)N[C@H](CCCNC(=N)N)C2=O)CSSC[C@@H](C(N)=O)NC(=O)[C@H](Cc2c[nH]c3ccccc23)NC1=O [Hydantoin(C(O)-(D-Arg-Gly))-cyclo(Cys-Glu-His-D-Phe-Arg-Trp-Cys)-NH2]
12.9	10.3	0.125	7.44	4.3	78	1.77	4540	N=C(N)NCCC[C@@H]1NC(=O)[C@@H](Cc2ccccc2)NC(=O)[C@H](Cc2cnc[nH]2)NC(=O)[C@H](CCC(=O)O)NC(=O)[C@@H](NC(=O)[C@@H](CCCNC(=N)N)N2C(=O)CNC2=O)CSSC[C@@H](C(N)=O)NC(=O)[C@H](Cc2c[nH]c3ccccc23)NC1=O [Hydantoin(C(O)-(Gly-D-Arg))-cyclo(Cys-Glu-His-D-Phe-Arg-Trp-Cys)-NH2]
			> 10					N=C(N)NCCC[C@@H]1NC(=O)[C@@H](Cc2ccccc2)NC(=O)[C@H](Cc2cnc[nH]2)NC(=O)[C@H](CCC(=O)O)NC(=O)[C@@H](NC(=O)CN2C(=O)CNC2=O)CSSC[C@@H](C(N)=O)NC(=O)[C@H](Cc2c[nH]c3ccccc23)NC1=O [Hydantoin(C(O)-(Gly-Gly))-cyclo(Cys-Glu-His-D-Phe-Arg-Trp-Cys)-NH2]
			> 10					CCCC[C@@H]1NC(=O)N(CC(=O)N[C@H]2CSSC[C@@H](C(N)=O)NC(=O)[C@H](Cc3c[nH]c4ccccc34)NC(=O)[C@H](CCCNC(=N)N)NC(=O)[C@@H](Cc3ccccc3)NC(=O)[C@H](Cc3cnc[nH]3)NC(=O)[C@H](CCC(=O)O)NC2=O)C1=O [Hydantoin(C(O)-(Nle-Gly))-cyclo(Cys-Glu-His-D-Phe-Arg-Trp-Cys)-NH2]
				7570	1920	420	2880	N=C(N)NCCC[C@@H]1NC(=O)[C@@H](Cc2ccc3ccccc3c2)NC(=O)C2(CC2)N2C(=O)N[C@@H](CC(=O)NCCCC[C@@H](C(N)=O)NC(=O)[C@H](Cc3c[nH]c4ccccc34)NC1=O)C2=O [cyclo[Hydantoin(C(O)-(Asp-A3c))-D-2-Nal-Arg-Trp-Lys]-NH2]
				9940	2390			N=C(N)NCCC[C@@H]1NC(=O)[C@@H](Cc2ccc3ccccc3c2)NC(=O)C2(CCCC2)N2C(=O)N[C@@H](CC(=O)NCCCC[C@@H](C(N)=O)NC(=O)[C@H](Cc3c[nH]c4ccccc34)NC1=O)C2=O [cyclo[Hydantoin(C(O)-(Asp-A5c))-D-2-Nal-Arg-Trp-Lys]-NH2]
				2170	1480	16.5	451	N=C(N)NCCC[C@@H]1NC(=O)[C@@H](Cc2ccc3ccccc3c2)NC(=O)C2(CCCCC2)N2C(=O)N[C@@H](CC(=O)NCCCC[C@@H](C(N)=O)NC(=O)[C@H](Cc3c[nH]c4ccccc34)NC1=O)C2=O [cyclo[Hydantoin(C(O)-(Asp-A6c))-D-2-Nal-Arg-Trp-Lys]-NH2]
				9030	2630	35.8	1160	N=C(N)NCCC[C@@H]1NC(=O)[C@@H](Cc2ccc3ccccc3c2)NC(=O)C2(Cc3ccccc3C2)N2C(=O)N[C@@H](CC(=O)NCCCC[C@@H](C(N)=O)NC(=O)[C@H](Cc3c[nH]c4ccccc34)NC1=O)C2=O [cyclo[Hydantoin(C(O)-(Asp-Aic))-D-2-Nal-Arg-Trp-Lys]-NH2]
				1280	2760	266		N=C(N)NCCC[C@@H]1NC(=O)[C@@H](Cc2ccc3ccccc3c2)NC(=O)C2(CCNCC2)N2C(=O)N[C@@H](CC(=O)NCCCC[C@@H](C(N)=O)NC(=O)[C@H](Cc3c[nH]c4ccccc34)NC1=O)C2=O [cyclo[Hydantoin(C(O)-(Asp-Apc))-D-2-Nal-Arg-Trp-Lys]-NH2]
							> 10000	C[C@@H]1C(=O)N[C@@H](Cc2cnc[nH]2)C(=O)N[C@H](Cc2ccccc2)C(=O)N[C@@H](CCCNC(=N)N)C(=O)N[C@@H](Cc2c[nH]c3ccccc23)C(=O)N[C@H](C(N)=O)CNC(=O)C[C@@H]2NC(=O)N1C2=O [cyclo[Hydantoin(C(O)-(Asp-D-Ala))-His-D-Phe-Arg-Trp-Dap]-NH2]
56.6	88.6	4.5	9.3	37.7	576	7.81	6400	C[C@@H]1C(=O)N[C@@H](Cc2cnc[nH]2)C(=O)N[C@H](Cc2ccccc2)C(=O)N[C@@H](CCCNC(=N)N)C(=O)N[C@@H](Cc2c[nH]c3ccccc23)C(=O)N[C@H](C(N)=O)CCCNC(=O)C[C@@H]2NC(=O)N1C2=O [cyclo[Hydantoin(C(O)-(Asp-D-Ala))-His-D-Phe-Arg-Trp-Orn]-NH2]
				200				N=C(N)NCCC[C@@H]1NC(=O)[C@@H](Cc2ccc3ccccc3c2)NC(=O)[C@H](Cc2cnc[nH]2)N2C(=O)N[C@@H](CC(=O)NCCCC[C@@H](C(N)=O)NC(=O)[C@H](Cc3c[nH]c4ccccc34)NC1=O)C2=O [cyclo[Hydantoin(C(O)-(Asp-His))-D-2-Nal-Arg-Trp-Lys]-NH2]
56.7	18.2	0.182		16.4	863	4.97		C[C@@H]1C(=O)N[C@@H](Cc2cnc[nH]2)C(=O)N[C@H](Cc2ccccc2)C(=O)N[C@@H](CCCNC(=N)N)C(=O)N[C@@H](Cc2c[nH]c3ccccc23)C(=O)N[C@H](C(N)=O)CNC(=O)CC[C@@H]2NC(=O)N1C2=O [cyclo[Hydantoin(C(O)-(Glu-D-Ala))-His-D-Phe-Arg-Trp-Dap]-NH2]
	22.3	3.62		72.6	1920	45.2		C[C@@H]1C(=O)N[C@@H](Cc2cnc[nH]2)C(=O)N[C@H](Cc2ccccc2)C(=O)N[C@@H](CCCNC(=N)N)C(=O)N[C@@H](Cc2c[nH]c3ccccc23)C(=O)N[C@H](C(N)=O)CCCCNC(=O)CC[C@@H]2NC(=O)N1C2=O [cyclo[Hydantoin(C(O)-(Glu-D-Ala))-His-D-Phe-Arg-Trp-Lys]-NH2]
	39.2	4.94		60.4	2840	52.4		C[C@@H]1C(=O)N[C@@H](Cc2cnc[nH]2)C(=O)N[C@H](Cc2ccccc2)C(=O)N[C@@H](CCCNC(=N)N)C(=O)N[C@@H](Cc2c[nH]c3ccccc23)C(=O)N[C@H](C(N)=O)CCCNC(=O)CC[C@@H]2NC(=O)N1C2=O [cyclo[Hydantoin(C(O)-(Glu-D-Ala))-His-D-Phe-Arg-Trp-Orn]-NH2]
14.5	21.8	0.576	1.78					N=C(N)NCCC[C@@H]1NC(=O)[C@@H](Cc2ccccc2)NC(=O)[C@H](Cc2cnc[nH]2)NC(=O)[C@H](CCC(=O)O)NC(=O)[C@@H](N2C(=O)CNC2=O)CSSC[C@@H](C(N)=O)NC(=O)[C@H](Cc2c[nH]c3ccccc23)NC1=O [cyclo[Hydantoin(C(O)-(Gly-Cys))-Glu-His-D-Phe-Arg-Trp-Cys]-NH2]

Structure (SMILES)	EC50 (hMC1 [1]) [nM]	EC50 (hMC3 [2]) [nM]	EC50 (hMC4 [3]) [nM]	EC50 (hMC5 [4]) [µM]	Ki (hMC1 [5]) [nM]	Ki (hMC3 [6]) [nM]	Ki (hMC4 [7]) [nM]	Ki (hMC5 [8]) [nM]
C[C@H]1NC(=O)[C@@H](NC(=O)CN2C(=O)N[C@H](C)C2=O)CSSC[C@@H](C(N)=O)NC(=O)[C@H](Cc2c[nH]c3ccccc23)NC(=O)[C@H](CCCNC(=N)N)NC(=O)[C@@H](Cc2ccccc2)NC(=O)[C@H](Cc2cnc[nH]2)NC1=O [Hydantoin(C(O)-(D-Ala-Gly))-cyclo(Cys-D-Ala-His-D-Phe-Arg-Trp-Cys)-NH2]	4.7	2.22	0.309	0.355				
CCCC[C@@H](C(=O)N[C@H]1CSSC[C@@H](C(N)=O)NC(=O)[C@H](Cc2c[nH]c3ccccc23)NC(=O)[C@H](CCCNC(=N)N)NC(=O)[C@@H](Cc2ccccc2)NC(=O)[C@H](Cc2cnc[nH]2)NC(=O)[C@@H](C)NC1=O)N1C(=O)N[C@H](C)C1=O [Hydantoin(C(O)-(D-Ala-Nle))-cyclo(Cys-D-Ala-His-D-Phe-Arg-Trp-Cys)-NH2]		2.56	1.47					
C[C@H]1NC(=O)[C@@H](NC(=O)CN2C(=O)N[C@H](CCCNC(=N)N)C2=O)CSSC[C@@H](C(N)=O)NC(=O)[C@H](Cc2c[nH]c3ccccc23)NC(=O)[C@H](CCCNC(=N)N)NC(=O)[C@@H](Cc2ccccc2)NC(=O)[C@H](Cc2cnc[nH]2)NC1=O [Hydantoin(C(O)-(D-Arg-Gly))-cyclo(Cys-D-Ala-His-D-Phe-Arg-Trp-Cys)-NH2]	11.5	23.2	0.513	3.95				
C[C@H]1NC(=O)[C@@H](NC(=O)[C@@H](CCCNC(=N)N)N2C(=O)CNC2=O)CSSC[C@@H](C(N)=O)NC(=O)[C@H](Cc2c[nH]c3ccccc23)NC(=O)[C@H](CCCNC(=N)N)NC(=O)[C@@H](Cc2ccccc2)NC(=O)[C@H](Cc2cnc[nH]2)NC1=O [Hydantoin(C(O)-(Gly-D-Arg))-cyclo(Cys-D-Ala-His-D-Phe-Arg-Trp-Cys)-NH2]	7.53	11.6	0.435	9.84				
CC[C@H](C)[C@@H]1NC(=O)N([C@H]2CSSC[C@@H](C(N)=O)NC(=O)[C@H](Cc3c[nH]c4ccccc34)NC(=O)[C@H](CCCNC(=N)N)NC(=O)[C@@H](Cc3ccccc3)NC(=O)[C@H](Cc3cnc[nH]3)NC(=O)[C@@H](C)NC2=O)C1=O [cyclo[Hydantoin(C(O)-(Ile-Cys))-D-Ala-His-D-Phe-Arg-Trp-Cys]-NH2]								> 10000
